Experiments:
Experiment in all cases: Test C greenhouse herbicide test, pre- and postemergence
Type in all cases: in vivo
[1] = tested on: barnyardgrass (Echinochloa crus-galli)
In short: (§1)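 Preemergence: seeds sown in a loam soil–sand blend and sprayed with test chemicals in a non-phytotoxic solvent mixture containing surfactant. Postemergence: plants grown in peat-based medium and treated at 2 to 18 cm (1- to 4-leaf stage). After 13 to 15 d in a greenhouse, injury was visually rated 0–100 against controls.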

[2] = tested on: blackgrass (Alopecurus myosuroides)
In short: as §1

[3] = tested on: crabgrass, large (large crabgrass, Digitaria sanguinalis)
In short: as §1

[4] = tested on: foxtail, giant (giant foxtail, Setaria faberii)
In short: as §1

[5] = tested on: galium (catchweed bedstraw, Galium aparine)
In short: as §1

[6] = tested on: johnsongrass (Sorghum halepense)
In short: as §1

[7] = tested on: lambsquarters (Chenopodium album)
In short: as §1

[8] = tested on: morningglory (Ipomoea coccinea)
In short: as §1

[9] = tested on: nutsedge, yellow (yellow nutsedge, Cyperus esculentus)
In short: as §1

[10] = tested on: oilseed rape (Brassica napus)
In short: as §1

[11] = tested on: pigweed (Amaranthus retroflexus)
In short: as §1

[12] = tested on: ragweed (common ragweed, Ambrosia elatior)
In short: as §1

[13] = tested on: soybean (Glycine max)
In short: as §1

[14] = tested on: velvetleaf (Abutilon theophrasti)
In short: as §1

[15] = tested on: waterhemp (common waterhemp, Amaranthus rudis)
In short: as §1

[16] = tested on: wheat (winter wheat, Triticum aestivum)
In short: as §1

[17] = Postemergence, 31 g ai/ha, scale 0 to 100 (0 no effect, 100 complete control)
[18] = Postemergence, 62 g ai/ha, 0 to 100 scale (0 no effect, 100 complete control)
[19] = Postemergence, 125 g ai/ha, scale 0 to 100, 0 is no effect, 100 is complete control
[20] = Postemergence, 250 g ai/ha, scale 0 to 100, 0 no effect, 100 complete control, 13 to 15 d
[21] = postemergence, 125 g ai/ha, scale 0 to 100, 0 no effect, 100 complete control
[22] = Preemergence, 31 g ai/ha, scale 0 to 100, 0 is no effect, 100 is complete control
[23] = Preemergence, 62 g ai/ha, scale 0 to 100, 0 is no effect, 100 is complete control
[24] = Preemergence, 125 g ai/ha, scale 0 to 100, 0 is no effect, 100 is complete control
[25] = Preemergence, 250 g ai/ha, scale 0 to 100 (0 no effect, 100 complete control)

Cc1nn(C)c(=O)c(-c2cccc3ccc(C#N)cc23)c1O [Compound 127]
Plant response rating, Barnyardgrass [1, 17]: 10
Barnyardgrass plant response rating [1, 18]: 20
Plant response rating, Barnyardgrass [1, 19]: 25
Plant response rating, Barnyardgrass [1, 20]: 25
Plant response rating, Blackgrass [2, 17]: 0
Blackgrass plant response rating [2, 18]: 5
Plant response rating, Blackgrass [2, 20]: 35
Blackgrass plant response rating [2, 21]: 5
Plant response rating, Crabgrass, Large [3, 17]: 0
Crabgrass, Large plant response rating [3, 18]: 5
Plant response rating, Crabgrass, Large [3, 20]: 25
Crabgrass, Large plant response rating [3, 21]: 10
Plant response rating, Foxtail, Giant [4, 17]: 5
Foxtail, Giant plant response rating [4, 18]: 5
Plant response rating, Foxtail, Giant [4, 20]: 40
Foxtail, Giant plant response rating [4, 21]: 25
Plant response rating, Galium [5, 17]: 75
Galium plant response rating [5, 18]: 80
Plant response rating, Galium [5, 20]: 90
Galium plant response rating [5, 21]: 85
Plant response rating, Johnsongrass [6, 17]: 5
Johnsongrass plant response rating [6, 18]: 5
Plant response rating, Johnsongrass [6, 20]: 15
Johnsongrass plant response rating [6, 21]: 10
Plant response rating, Lambsquarters [7, 17]: 70
Lambsquarters plant response rating [7, 18]: 80
Plant response rating, Lambsquarters [7, 20]: 98
Lambsquarters plant response rating [7, 21]: 85
Plant response rating, Morningglory [8, 17]: 65
Morningglory plant response rating [8, 18]: 75
Plant response rating, Morningglory [8, 20]: 98
Morningglory plant response rating [8, 21]: 85
Plant response rating, Nutsedge, Yellow [9, 17]: 10
Nutsedge, Yellow plant response rating [9, 18]: 35
Plant response rating, Nutsedge, Yellow [9, 20]: 70
Nutsedge, Yellow plant response rating [9, 21]: 60
Plant response rating, Oilseed Rape [10, 17]: 0
Oilseed Rape plant response rating [10, 18]: 0
Plant response rating, Oilseed Rape [10, 20]: 100
Oilseed Rape plant response rating [10, 21]: 25
Plant response rating, Pigweed [11, 17]: 70
Pigweed plant response rating [11, 18]: 85
Plant response rating, Pigweed [11, 20]: 95
Pigweed plant response rating [11, 21]: 90
Plant response rating, Ragweed [12, 17]: 10
Ragweed plant response rating [12, 18]: 55
Plant response rating, Ragweed [12, 20]: 90
Ragweed plant response rating [12, 21]: 60
Plant response rating, Soybean [13, 17]: 0
Soybean plant response rating [13, 18]: 10
Plant response rating, Soybean [13, 20]: 35
Soybean plant response rating [13, 21]: 30
Plant response rating, Velvetleaf [14, 17]: 20
Velvetleaf plant response rating [14, 18]: 30
Plant response rating, Velvetleaf [14, 20]: 55
Velvetleaf plant response rating [14, 21]: 25
Plant response rating, Waterhemp [15, 17]: 70
Waterhemp plant response rating [15, 18]: 85
Plant response rating, Waterhemp [15, 20]: 95
Waterhemp plant response rating [15, 21]: 85
Plant response rating, Wheat [16, 17]: 0
Wheat plant response rating [16, 18]: 5
Plant response rating, Wheat [16, 20]: 30
Wheat plant response rating [16, 21]: 5

CC(=O)Oc1c(Br)nn(C)c(=O)c1-c1c(C)ccc2ccccc12 [Compound 129]
Plant response rating, Barnyardgrass [1, 17]: 50
Barnyardgrass plant response rating [1, 18]: 65
Plant response rating, Barnyardgrass [1, 19]: 70
Plant response rating, Barnyardgrass [1, 20]: 85
Plant response rating, Barnyardgrass [1, 22]: 15
Plant response rating, Barnyardgrass [1, 23]: 70
Plant response rating, Barnyardgrass [1, 24]: 100
Barnyardgrass plant response rating [1, 25]: 90
Plant response rating, Blackgrass [2, 17]: 35
Blackgrass plant response rating [2, 18]: 40
Plant response rating, Blackgrass [2, 20]: 80
Plant response rating, Blackgrass [2, 22]: 5
Plant response rating, Blackgrass [2, 23]: 30
Plant response rating, Blackgrass [2, 24]: 70
Blackgrass plant response rating [2, 25]: 80
Blackgrass plant response rating [2, 21]: 60
Plant response rating, Crabgrass, Large [3, 17]: 20
Crabgrass, Large plant response rating [3, 18]: 30
Plant response rating, Crabgrass, Large [3, 20]: 60
Plant response rating, Crabgrass, Large [3, 22]: 5
Plant response rating, Crabgrass, Large [3, 23]: 25
Plant response rating, Crabgrass, Large [3, 24]: 75
Crabgrass, Large plant response rating [3, 25]: 85
Crabgrass, Large plant response rating [3, 21]: 35
Plant response rating, Foxtail, Giant [4, 17]: 60
Foxtail, Giant plant response rating [4, 18]: 75
Plant response rating, Foxtail, Giant [4, 20]: 95
Plant response rating, Foxtail, Giant [4, 22]: 85
Plant response rating, Foxtail, Giant [4, 23]: 90
Plant response rating, Foxtail, Giant [4, 24]: 95
Foxtail, Giant plant response rating [4, 25]: 98
Foxtail, Giant plant response rating [4, 21]: 85
Plant response rating, Galium [5, 17]: 95
Galium plant response rating [5, 18]: 100
Plant response rating, Galium [5, 20]: 100
Plant response rating, Galium [5, 22]: 95
Plant response rating, Galium [5, 23]: 98
Plant response rating, Galium [5, 24]: 100
Galium plant response rating [5, 25]: 98
Galium plant response rating [5, 21]: 100
Plant response rating, Johnsongrass [6, 17]: 10
Johnsongrass plant response rating [6, 18]: 15
Plant response rating, Johnsongrass [6, 20]: 25
Plant response rating, Johnsongrass [6, 22]: 5
Plant response rating, Johnsongrass [6, 23]: 5
Plant response rating, Johnsongrass [6, 24]: 10
Johnsongrass plant response rating [6, 25]: 25
Johnsongrass plant response rating [6, 21]: 15
Plant response rating, Lambsquarters [7, 17]: 95
Lambsquarters plant response rating [7, 18]: 95
Plant response rating, Lambsquarters [7, 20]: 98
Plant response rating, Lambsquarters [7, 22]: 85
Plant response rating, Lambsquarters [7, 23]: 80
Plant response rating, Lambsquarters [7, 24]: 85
Lambsquarters plant response rating [7, 25]: 90
Lambsquarters plant response rating [7, 21]: 95
Plant response rating, Morningglory [8, 17]: 98
Morningglory plant response rating [8, 18]: 100
Plant response rating, Morningglory [8, 20]: 100
Plant response rating, Morningglory [8, 22]: 85
Plant response rating, Morningglory [8, 23]: 90
Plant response rating, Morningglory [8, 24]: 90
Morningglory plant response rating [8, 25]: 98
Morningglory plant response rating [8, 21]: 100
Plant response rating, Nutsedge, Yellow [9, 17]: 60
Nutsedge, Yellow plant response rating [9, 18]: 75
Plant response rating, Nutsedge, Yellow [9, 20]: 95
Plant response rating, Nutsedge, Yellow [9, 22]: 55
Plant response rating, Nutsedge, Yellow [9, 23]: 85
Plant response rating, Nutsedge, Yellow [9, 24]: 90
Nutsedge, Yellow plant response rating [9, 25]: 95
Nutsedge, Yellow plant response rating [9, 21]: 85
Plant response rating, Oilseed Rape [10, 17]: 0
Oilseed Rape plant response rating [10, 18]: 0
Plant response rating, Oilseed Rape [10, 20]: 5
Plant response rating, Oilseed Rape [10, 22]: 5
Plant response rating, Oilseed Rape [10, 23]: 50
Plant response rating, Oilseed Rape [10, 24]: 90
Oilseed Rape plant response rating [10, 25]: 90
Oilseed Rape plant response rating [10, 21]: 5
Plant response rating, Pigweed [11, 17]: 95
Pigweed plant response rating [11, 18]: 95
Plant response rating, Pigweed [11, 20]: 98
Plant response rating, Pigweed [11, 22]: 100
Plant response rating, Pigweed [11, 23]: 98
Plant response rating, Pigweed [11, 24]: 98
Pigweed plant response rating [11, 25]: 100
Pigweed plant response rating [11, 21]: 98
Plant response rating, Ragweed [12, 17]: 90
Ragweed plant response rating [12, 18]: 90
Plant response rating, Ragweed [12, 20]: 95
Plant response rating, Ragweed [12, 22]: 70
Plant response rating, Ragweed [12, 23]: 85
Plant response rating, Ragweed [12, 24]: 95
Ragweed plant response rating [12, 25]: 95
Ragweed plant response rating [12, 21]: 95
Plant response rating, Soybean [13, 17]: 0
Soybean plant response rating [13, 18]: 10
Plant response rating, Soybean [13, 20]: 25
Plant response rating, Soybean [13, 22]: 0
Plant response rating, Soybean [13, 23]: 0
Plant response rating, Soybean [13, 24]: 5
Soybean plant response rating [13, 25]: 20
Soybean plant response rating [13, 21]: 20
Plant response rating, Velvetleaf [14, 17]: 85
Velvetleaf plant response rating [14, 18]: 95
Plant response rating, Velvetleaf [14, 20]: 100
Plant response rating, Velvetleaf [14, 22]: 70
Plant response rating, Velvetleaf [14, 23]: 85
Plant response rating, Velvetleaf [14, 24]: 98
Velvetleaf plant response rating [14, 25]: 98
Velvetleaf plant response rating [14, 21]: 95
Plant response rating, Waterhemp [15, 17]: 75
Waterhemp plant response rating [15, 18]: 70
Plant response rating, Waterhemp [15, 20]: 98
Plant response rating, Waterhemp [15, 22]: 90
Plant response rating, Waterhemp [15, 23]: 95
Plant response rating, Waterhemp [15, 24]: 100
Waterhemp plant response rating [15, 25]: 100
Waterhemp plant response rating [15, 21]: 85
Plant response rating, Wheat [16, 17]: 10
Wheat plant response rating [16, 18]: 35
Plant response rating, Wheat [16, 20]: 55
Plant response rating, Wheat [16, 22]: 35
Plant response rating, Wheat [16, 23]: 50
Plant response rating, Wheat [16, 24]: 55
Wheat plant response rating [16, 25]: 85
Wheat plant response rating [16, 21]: 40
